Like-named read-outs stand apart in the source and are kept apart here.
Legend:
Type in all cases: cell-based
human FXR = target: T1, human FXR (Homo sapiens, UniProt Q96RI1); assay: FXR responsive luciferase reporter gene assay (FXRE-luc + human FXR expression construct) in HepG2 cells; settings: HepG2, 24 h
T1 construct: expressed in transfected cells; host or cells: HepG2
T1 sequence (Q96RI1 1-486): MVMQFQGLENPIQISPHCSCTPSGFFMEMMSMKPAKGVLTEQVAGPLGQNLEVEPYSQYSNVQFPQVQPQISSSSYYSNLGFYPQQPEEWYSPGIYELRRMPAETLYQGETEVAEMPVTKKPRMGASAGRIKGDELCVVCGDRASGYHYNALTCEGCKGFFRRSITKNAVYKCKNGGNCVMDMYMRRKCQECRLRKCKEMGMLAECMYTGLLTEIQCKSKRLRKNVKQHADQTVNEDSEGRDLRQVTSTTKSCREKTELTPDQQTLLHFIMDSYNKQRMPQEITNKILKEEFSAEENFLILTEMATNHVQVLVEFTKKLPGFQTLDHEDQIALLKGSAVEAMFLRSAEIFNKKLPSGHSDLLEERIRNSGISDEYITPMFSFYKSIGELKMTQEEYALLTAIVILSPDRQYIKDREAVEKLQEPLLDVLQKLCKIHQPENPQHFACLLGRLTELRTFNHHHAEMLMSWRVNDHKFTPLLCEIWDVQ
Text: (§1) In HepG2 cells, luciferase gene reporter assays have been performed with the transiently transfected reporter gene luciferase construct with the UAS yeast binding site interacting with GAL4 protein (pGL5-UAS 9x, Promega). DNA constructs encoding human LBD domains of human PPARα, PPARγ, of LXRα (pGAL4-PPARα, pGAL4-PPARγ, pGAL4-LXRα) have been cotransfected with the reporter construct. For FXR, FXRE-luc construct with FXR response elements upstream of Firefly luciferase has been used together with an expression construct for human FXR for HepG2 cells transfection. HepG2 cells were then treated with compounds of the invention for 24 h.

human PPARα = target: T2, human PPARα (Homo sapiens, UniProt Q07869); assay: PPARα responsive luciferase reporter gene assay (pGAL4-PPARα / pGL5-UAS 9x) in HepG2 cells; settings: relative activation to fenofibrate 10 µM (100%), HepG2, 24 h, negative value indicates inverse agonism
T2 construct: DNA constructs encoding human LBD domains of human PPARα, PPARγ, of LXRα (pGAL4-PPARα, pGAL4-PPARγ, pGAL4-LXRα); expressed in transfected cells; host or cells: HepG2
T2 sequence (Q07869 239-466 limits assumed): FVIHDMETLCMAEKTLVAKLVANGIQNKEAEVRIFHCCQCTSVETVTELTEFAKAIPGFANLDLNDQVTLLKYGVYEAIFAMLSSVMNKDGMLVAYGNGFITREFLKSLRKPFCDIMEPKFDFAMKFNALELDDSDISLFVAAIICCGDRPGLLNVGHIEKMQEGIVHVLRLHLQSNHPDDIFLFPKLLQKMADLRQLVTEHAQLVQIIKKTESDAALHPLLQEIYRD
Text: Bezafibrate, GW7647 and WY14643 are known PPARα ligands. […] GW3965 is known high-affinity LXRα ligand. […]
as §1

human LXRα = target: T3, human LXRα (Homo sapiens, UniProt Q13133); assay: LXRα luciferase reporter gene assay, inhibition of activation by GW3965 (pGAL4-LXRα / pGL5-UAS 9x) in HepG2 cells
T3 construct: DNA constructs encoding human LBD domains of human PPARα, PPARγ, of LXRα (pGAL4-PPARα, pGAL4-PPARγ, pGAL4-LXRα); expressed in transfected cells; host or cells: HepG2
T3 sequence (Q13133 209-447 limits assumed): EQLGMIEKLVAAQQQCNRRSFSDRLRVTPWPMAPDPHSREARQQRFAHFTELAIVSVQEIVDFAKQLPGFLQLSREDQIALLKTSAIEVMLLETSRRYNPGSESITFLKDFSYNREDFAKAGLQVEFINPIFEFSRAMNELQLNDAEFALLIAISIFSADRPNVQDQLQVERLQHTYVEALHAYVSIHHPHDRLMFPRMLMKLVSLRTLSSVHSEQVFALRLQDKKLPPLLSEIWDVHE
Procedure: Bezafibrate, GW7647 and WY14643 are known PPARα ligands. […] GW3965 is known high-affinity LXRα ligand.
Inverse agonistic/antagonistic activities of tested compounds to LXRα receptor activated by the LXRα agonist GW3965(10 µM). […] Negative value indicates inverse agonism.
as §1

human PPARγ = target: T4, human PPARγ (Homo sapiens, UniProt P37231); assay: PPARγ luciferase reporter gene assay (pGAL4-PPARγ / pGL5-UAS 9x) in HepG2 cells; settings: HepG2, 24 h
T4 construct: DNA constructs encoding human LBD domains of human PPARα, PPARγ, of LXRα (pGAL4-PPARα, pGAL4-PPARγ, pGAL4-LXRα); expressed in transfected cells; host or cells: HepG2
T4 sequence (P37231 238-503 limits assumed): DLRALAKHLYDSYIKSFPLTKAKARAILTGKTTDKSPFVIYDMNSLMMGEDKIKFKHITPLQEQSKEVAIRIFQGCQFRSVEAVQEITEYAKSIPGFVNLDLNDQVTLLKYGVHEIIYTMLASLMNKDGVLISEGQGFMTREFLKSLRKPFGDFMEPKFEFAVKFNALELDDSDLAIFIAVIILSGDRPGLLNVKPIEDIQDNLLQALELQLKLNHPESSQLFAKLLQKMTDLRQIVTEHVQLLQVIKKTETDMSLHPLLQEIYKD

TGR5 = target: T5, TGR5 (Homo sapiens, UniProt Q8TDU6); assay: TGR5 luciferase reporter assay; settings: relative activation to LCA 10 µM (100%), negative value indicates inverse agonism
T5 sequence (Q8TDU6 1-330): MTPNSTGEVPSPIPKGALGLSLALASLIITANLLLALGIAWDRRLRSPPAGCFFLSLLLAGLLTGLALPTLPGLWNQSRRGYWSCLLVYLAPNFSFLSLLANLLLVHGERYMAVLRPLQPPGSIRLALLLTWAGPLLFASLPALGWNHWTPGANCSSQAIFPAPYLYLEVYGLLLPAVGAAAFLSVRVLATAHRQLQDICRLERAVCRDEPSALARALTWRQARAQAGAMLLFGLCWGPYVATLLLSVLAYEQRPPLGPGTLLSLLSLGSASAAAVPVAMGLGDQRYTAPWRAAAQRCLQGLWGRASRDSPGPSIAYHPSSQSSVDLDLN

[1] = HepG2, 24 h; read-out: LXRα antagonism

| Emax at 10 µM (human FXR) [%] | Emax at 10 µM (human PPARα) [%] | inhibition at 10 µM (human LXRα; [1]) [%] | Emax at 10 µM (human PPARγ) [%] | Emax at 10 µM (TGR5) [%] | SMILES | inhibition at 10 µM (human LXRα; HepG2, 24 h, read-out: LXRα antagonism) [%] |
| --- | --- | --- | --- | --- | --- | --- |
| 19 | -5 | 36 | 23 | – | C[C@@H](Oc1ccc(Oc2ccc3cc(Cl)ccc3n2)cc1)C(=O)O [compound 36, (R)-2-(4-((6-Chloroquinolin-2-yl)oxy)phenoxy)propanoic acid] | – |
| 14 | 0 | 41 | 1 | 2 | C[C@@H](Oc1ccc(Oc2ccc3c(Cl)cc(Cl)cc3n2)cc1)C(=O)O [compound 38, (R)-2-(4-((5,7-Dichloroquinolin-2-yl)oxy)phenoxy)propanoic acid] | – |
| 4 | 87 | 43 | 3 | 6 | C[C@@H](Oc1ccc(Oc2ccc3ccc(Br)cc3n2)cc1)C(=O)O [compound 39, (R)-2-(4-((7-Bromoquinolin-2-yl)oxy)phenoxy)propanoic acid] | – |
| 1 | 1 | – | 7 | – | C[C@@H](Oc1ccc(Oc2ccc3ccc(F)cc3n2)cc1)C(=O)O [compound 41, (R)-2-(4-((7-Fluoroquinolin-2-yl)oxy)phenoxy)propanoic acid] | – |
| 1 | -5 | 48 | -1 | – | C[C@@H](Oc1ccc(Oc2ccc3c(C(F)(F)F)cccc3n2)cc1)C(=O)O [compound 43, (R)-2-(4-((5-(Trifluoromethyl)quinolin-2-yl)oxy)phenoxy)propanoic acid] | – |
| 15 | 0 | 7 | 4 | – | CCc1ccc2ccc(Oc3ccc(O[C@H](C)C(=O)O)cc3)nc2c1 [compound 44, (R)-2-(4-((7-Ethylquinolin-2-yl)oxy)phenoxy)propanoic acid] | – |
| 7 | 0 | 43 | 17 | – | Cc1cc(C)c2ccc(Oc3ccc(O[C@H](C)C(=O)O)cc3)nc2c1 [compound 45, (R)-2-(4-((5,7-Dimethylquinolin-2-yl)oxy)phenoxy)propanoic acid] | – |
| 0 | 87 | – | – | – | C[C@@H](Oc1ccc(Oc2ccc3ccc([N+](=O)[O-])cc3n2)cc1)C(=O)O [compound 50, (R)-2-(4-((7-nitroquinolin-2-yl)oxy)phenoxy)propanoic acid] | – |
| 0 | 1 | – | -2 | -15 | CC(C)(Oc1ccc(Oc2ccc3ccc(Cl)cc3n2)cc1)C(=O)O [compound 55, 2-(4-((7-Chloroquinolin-2-yl)oxy)phenoxy)-2-methylpropanoic acid] | – |
| 7 | 0 | – | 2 | 43 | C[C@@H](Oc1ccc(Oc2cnc3ccccc3n2)cc1)C(=O)O [compound 62] | – |
| -3 | 0 | – | 2 | 4 | C[C@@H](Oc1ccc(Oc2cnc3ccc(Cl)cc3n2)cc1)C(=O)O [compound 63, (R)-2-(4-((7-Chloroquinoxalin-2-yl)oxy)phenoxy)propanoic acid] | – |
| -2 | 69 | – | 2 | -3 | C[C@@H](Oc1ccc(Oc2cnc3ccc(Br)cc3n2)cc1)C(=O)O [compound 65, (R)-2-(4-((7-Bromoquinoxalin-2-yl)oxy)phenoxy)propanoic acid] | – |
| -3 | 1 | – | 2 | – | Cc1ccc2ncc(Oc3ccc(O[C@H](C)C(=O)O)cc3)nc2c1 [compound 66, (R)-2-(4-((7-Methylquinoxalin-2-yl)oxy)phenoxy)propanoic acid] | – |
| -3 | 49 | – | 9 | 11 | C[C@@H](Oc1ccc(Oc2cnc3ccc(I)cc3n2)cc1)C(=O)O [compound 68, (R)-2-(4-((7-Iodoquinoxalin-2-yl)oxy)phenoxy)propanoic acid] | – |
| 3 | 46 | – | 1 | – | CC(=O)Nc1ccc2ncc(Oc3ccc(O[C@H](C)C(=O)O)cc3)nc2c1 [compound 69, (R)-2-(4-((7-Acetamidoquinoxalin-2-yl)oxy)phenoxy)propanoic acid] | – |
| -2 | 10 | – | 0 | – | COc1ccc2ncc(Oc3ccc(O[C@H](C)C(=O)O)cc3)nc2c1 [compound 70, (R)-2-(4-((7-Methoxyquinoxalin-2-yl)oxy)phenoxy)propanoic acid] | – |
| 6 | 59 | – | 1 | 20 | CC(=O)Nc1ccc2ncc(Oc3ccc(OCC(=O)O)cc3)nc2c1 [compound 73, 2-(4-((7-Acetamidoquinoxalin-2-yl)oxy)phenoxy)acetic acid] | – |
| 25 | – | 51 | – | – | CCOC(=O)[C@@H](C)Oc1ccc(Oc2ccc3c(Cl)cccc3n2)cc1 [compound 76, Ethyl (R)-2-(4-((5-chloroquinolin-2-yl)oxy)phenoxy)propanoate] | – |
| -1 | 0 | 66 | – | – | CC(Oc1ccc(Nc2cnc3ccc(Cl)cc3n2)cc1)C(=O)O (stereo not shown) [compound 80, 2-(4-((7-chloroquinoxalin-2-yl)amino)phenoxy)propanoic acid] | – |
| -2 | 0 | 5 | 1 | – | CC(Oc1ccc(NCc2ccc3c(Cl)cc(Cl)cc3n2)cc1)C(=O)O (stereo not shown) [compound 84, 2-(4-(((5,7-Dichloroquinolin-2-yl)methyl)amino)phenoxy)propanoic acid] | – |
| -1 | 1 | – | -6 | 30 | CCOC(=O)C(C)Oc1ccc(NCc2ccc3c(Cl)cccc3n2)cc1 (stereo not shown) [compound 85, Ethyl 2-(4-(((5-chloroquinolin-2-yl)methyl)amino)phenoxy)propanoate] | – |

| SMILES | Emax at 10 µM (human FXR) [%] | Emax at 10 µM (human PPARα) [%] | inhibition at 10 µM (human LXRα; [1]) [%] | Emax at 10 µM (human PPARγ) [%] | Emax at 10 µM (TGR5) [%] | inhibition at 10 µM (human LXRα; HepG2, 24 h, read-out: LXRα antagonism) [%] |
| --- | --- | --- | --- | --- | --- | --- |
| C[C@@H](Oc1ccc(Oc2cnc3cc(Cl)ccc3n2)cc1)C(=O)O [compound 64, (R)-2-(4-((6-Chloroquinoxalin-2-yl)oxy)phenoxy)propanoic acid] | 1 | – | – | – | – | 17 |

— patent EP4583874B1, “MULTITARGET NUCLEAR RECEPTOR LIGANDS BASED ON 2-(4-(QUINOLIN-2-YLOXY)PHENOXY)PROPANOIC ACID AND 2-(4-(QUINOXALIN-2-YLOXY)PHENOXY)PROPANOIC ACID FOR THE TREATMENT OF METABOLIC AND LIVER DISEASES” (CHARLES UNIVERSITY, FACULTY OF PHARMACY IN HRADEC KRALOVE, priority 2022, dated 2024)
